From paper PMC7073886, “Structure–Bioactivity Relationships of Lapatinib Derived Analogs against Schistosoma mansoni” (ACS Medicinal Chemistry Letters, 2020)
In brackets after ≈: the same amount, converted by molar mass.

Key:
adult S. mansoni = experiment: Phenotypic screen of adult S. mansoni worms, severity scores and descriptors; type: cell-based, Schistosoma mansoni; conditions: for Severity Scores (10 μM) 1 h / Severity Scores (10 μM) 5 h / Severity Scores (10 μM) 24 h / Severity Scores (10 μM) 48 h / Descriptors (10 µM) 1 h / Descriptors (10 µM) 5 h / Descriptors (10 µM) 24 h / Descriptors (10 µM) 48 h: adult S. mansoni; for Severity Scores (10 μM) 1 h / Severity Scores (10 μM) 5 h / Severity Scores (10 μM) 24 h / Severity Scores (10 μM) 48 h: scale 0 (no activity) to 4 (maximal activity); for bioactivity against adult S. mansoni: adult schistosomes; for Severity Scores (10 μM) 1 h / Severity Scores (10 μM) 5 h / Severity Scores (10 μM) 24 h / Severity Scores (10 μM) 48 h / bioactivity against adult S. mansoni: 10 μM; for Descriptors (10 µM) 1 h / Descriptors (10 µM) 5 h / Descriptors (10 µM) 24 h / Descriptors (10 µM) 48 h: phenotypic descriptors
Description: Because the schistosome parasite can present multiple and dynamic phenotypic responses to chemical insult,[16] we employ a constrained nomenclature of descriptors to describe the changes in the parasite as a function of time and concentration (e.g., motility, density, and shape; and in the case of the adult parasite, an inability to adhere to the bottom of the assay dish). These descriptors are converted into severity scores on a scale of 0 (green)–4 (severest/red) that allow for partially quantitative comparisons of compound effects.[1]−[19] […] The descriptors themselves and their respective scores are detailed in the Supporting Information, Table S1. Severity score data are presented in the results (with the corresponding descriptors detailed in the Supporting Information, Tables S2–S8), and eight new analogs developed and synthesized in support of this effort are described. Finally, absorption, distribution, metabolism and excretion (ADME) data of all compounds presented in this work are reported in the Supporting Information, Table S15.
Table S1. Descriptors and associated severity scores used for S. mansoni adults.
R (rounded or shape altered 1
On sides (adults unable to 1
Shrunk (adults are shorter 1
surface (tegument) of adults)
dfailed to create analytical method
Maintenance of the Schistosoma mansoni life cycle (NMRI isolate), the preparation of adult worms (≥ 42-
days-old), and their co-incubation with test compounds were as described.7-9 Phenotypic responses were
visually recorded using a constrained nomenclature and converted to severity scores on a scale from zero
(no activity) to 4 (maximal activity).8, 9 Use of hamsters for maintaining the S. mansoni life-cycle was
approved by the Institutional Animal Care and Use Committee of the University of California San Diego.
The human myelomonocytic cell line THP -1 was grown at 37 °C and 5% CO2 in RPMI-1640 supplemented
with 10% iFBS, 2 mM glutamate, 100 U/mL penicillin and […] streptomycin.
Drug toxicity to HepG2 cells .10 HepG2 cells line were obtained from the American Type Culture
Collection and cultured in Minimal Essential Medium (MEM) supplemented with 0.19% sodium
bicarbonate, 10% Fetal Bovine Serum, 2 mM L -glutamine, 0.1 mM MEM non-essential amino, 0.009
mg/mL insulin, 1.76 mg/mL bovine serum albumin. The viability of the cells was measured using the MTT
(thiazolyl blue reduction) method. Briefly, ninety -six-well plates were seeded with 2.5 × 10^4 cells/well in
170 ml of culture medium and incubated overnight in 5% CO 2 at 37 °C. Cells were exposed to different
experimental compounds in DMSO. After 48 hours incubation, the viability of the cells was assessed using
MTT (thiazolyl blue reduction) as a dose response assay (11 two -fold serial dilutions) to obtain a calculated
IC50 determination. 4-Azaindolo[2,1-b]quinazoline-6,12-dione is used as a toxicity positive control and
each assay plate includes the following 3 additional controls: a) background control: no cells and no drug
was added, b) target control: cells added but no drugs, and c) DMSO control: same as the target control
except the culture media contains 0.6% DMSO. Absorbance was determined in all wells using a Perkin
Elmer, Ensight plate reader. The fifty percent inhibitory concentrations (IC50’s) were determined using
GraphPad Prism nonlinear regr ession (sigmoidal dose -response, variable slope) equation .
ADME Experiment Protocols
Aqueous pH 7.4 Solubility. Compounds were dried down from 10 mM DMSO solutions using centrifugal
evaporation technique. Phosphate buffer (0.1 M pH 7.4) was added and StirStix were inserted in the glass
vials, with shaking then performed at a constant temperature of 25 °C for 20 -24 h. This step was followed
by double centrifugation with a tip wash in between, to ensure that no residues of the dried compounds
interfere. The solutions were diluted before analysis and quantification using LC/MS/MS was performed.

[1] = Aqueous pH 7.4 solubility; type: physicochemical; conditions: for solubility: aqueous buffer, thermodynamic from solid, phosphate buffer pH 7.4, 25 °C, 20-24 h, read-out: aq sol (aqueous solubility)
[2] = Human plasma protein binding (equilibrium dialysis); type: in vitro ADME; conditions: read-out: human PPB (plasma protein binding) (converted); for fraction unbound at 10 µM: pH 7.4, 37 °C; for fraction unbound: pH 7.4, 10 µM, 37 °C
[3] = Human liver microsomal Clint; type: in vitro ADME; conditions: for microsomal CLint: read-out: HLM Clint
Rat hepatocyte Clint = type: in vitro ADME; conditions: rat hepatocytes, intrinsic clearance; for hepatocyte CLint: read-out: RH CLint
[4] = Log D7.4 shake-flask octanol-water; type: physicochemical; conditions: pH 7.4
Procedure: Log D7.4. Shake-flask octanol-water distribution coefficient was determined at pH 7.4 (Log D7.4). The aqueous solution used is 10 mM sodium phosphate pH 7.4 buffer. The method has been validated for Log D7.4 ranging from -2 to 5.0.
Human Plasma Protein Binding (PPB). PPB was determined using equilibrium dialysis (RED device) to separate free from bound compound. The amount of compound in plasma (10 µM initial concentration) and in dialysis buffer (pH 7.4 phosphate buffer) was measured by LC-MS/MS after equilibration at 37 °C in a dialysis chamber. The fraction unbound (fu) is reported.
Human Liver Microsomal Clint. In vitro intrinsic clearance was determined from human liver microsomes using a standard approach.11 Following incubation and preparation, the samples were analyzed using […]
Rat Hepatocyte Clint. In vitro intrinsic clearance was determined from rat hepatocytes using a standard approach.11 Following incubation and preparation, the samples were analyzed using LC/MS/MS. Refined […]
Calculated LogP and LogD values. Both LogP and LogD predictions are based on a modified version of the method12 where the predicted partition coefficients are composed of the molecules’ atomic increments.
General Chemistry. All starting materials were commercially obtained and were used without further purification, unless specified. Reaction solvents were purified by passage through alumina columns on a purification system manufactured by Innovative Technology (Newburyport, MA). NMR spectra were obtained on Varian NMR systems, operating at 400 or 500 MHz for 1 H acquisitions. LCMS analysis was performed using a Waters AllianceHT e2795 reverse phase HPLC (Waters SunFire C18 4.6 × 50 mm, 3.5 μm column), with a Waters 2996 photodiode array detector scanning from 210 nm to 600 nm, and Waters Micromass ZQ detector (electrospray ionization). Where required, final compounds were purified by preparative reverse phase HPLC (columns Waters Symmetry RP8 30 × 50 mm, 5 μm column, or OBD RP18 30 × 50 mm, 5 μm), with a single wavelength UV−visible detector and Waters Micromass ZQ (electrospray ionization).

[5] = human liver microsomes, intrinsic clearance

Compound | Severity Scores (10 μM) 1 h (adult S. mansoni) | Severity Scores (10 μM) 5 h (adult S. mansoni) | Severity Scores (10 μM) 24 h (adult S. mansoni) | Severity Scores (10 μM) 48 h (adult S. mansoni) | bioactivity against adult S. mansoni (adult S. mansoni) | solubility [1] | fraction unbound at 10 µM [2] | microsomal CLint [3, 5] | hepatocyte CLint (Rat hepatocyte Clint) | logD [4] | Descriptors (10 µM) 1 h (adult S. mansoni) | Descriptors (10 µM) 5 h (adult S. mansoni) | Descriptors (10 µM) 24 h (adult S. mansoni) | HLM Clint [3, 5] | RH CLint (Rat hepatocyte Clint) | Descriptors (10 µM) 48 h (adult S. mansoni) | improvement in solubility compared to 8a ([1]; relative to 8a) | fraction unbound [2] | clearance increase compared to 8a ([3]; relative to 8a) | improved metabolic stability in comparison to 8a ([3]; relative to 8a)
Cc1ccc2[nH]c3c4ccc(-c5cnc(N6CCCN(C)CC6)nc5)cc4ncc3c2c1 [6c] | 3 | 4 | 4 | 4 | severe bioactivity after 1 h | 14 µM (≈ 5.92 µg/mL) | < 0.01 | 130 µL/min/mg | 7 µL/min/1e6 cells | 5 |  |  |  |  |  |  |  |  |  | 
COc1ccc(NC(=O)c2ccc(-c3cccc(N4CCOCC4)c3)cc2N)cc1Cl [7e] | 0 | 0 | 2 | 2 | bioactivity after 24 h | 0.6 µM (≈ 0.263 µg/mL) | < 0.01 | 59 µL/min/mg | 4.4 µL/min/1e6 cells | 3.6 | none | none | S, on sides |  |  |  |  |  |  | 
Fc1cccc(COc2ccc(Nc3ncnc4ccc(-c5cccc(N6CCOCC6)c5)cc34)cc2Cl)c1 [compound 2] |  |  |  |  |  | < 1 µM | < 0.01 |  |  |  |  |  |  | 63 μL/min/mg protein | 44 µL/min/10^6 cells |  |  |  |  | 
COc1ccc(NC(=O)c2ccc(-c3ccc(S(=O)(=O)N4CCN(C)CC4)cc3)cc2O)cc1Cl [7c] | 0 | 3 | 2 |  | phenotypic response after 5 h | 6 µM (≈ 3.1 µg/mL) | < 0.01 | 62 µL/min/mg | 300 µL/min/1e6 cells | 3.9 | none |  |  |  |  |  |  |  |  | 
CN1CCCN(c2ncc(-c3ccc4c(Nc5ccncn5)ccnc4c3)cn2)CC1 [5c] | 0 | 0 | 0 | 0 | complete loss in activity | 930 µM (≈ 384 µg/mL) | 0.34 | 74 µL/min/mg | 82 µL/min/1e6 cells | 2.2 | none | none | none |  |  | none |  |  |  | 
Cc1cc2c(Nc3cnccn3)ccnc2cc1-c1cnc(N2CCCN(C)CC2)nc1 [8b] | 4 | 4 | 4 | 4 | severe phenotypic response recorded after 1 h |  |  |  | 42 µL/min/1e6 cells | 2.5 |  |  |  |  |  |  | > 33,500 fold | 0.18 | 2 fold | 
Cc1c(-c2cnc(N3CCCN(C)CC3)nc2)ccc2c(Nc3cnccn3)ccnc12 [9b] | 0 | 0 | 0 | 0 | no bioactivity |  |  |  | 27 µL/min/1e6 cells | 2.5 | none | none | none |  |  | none |  | 0.18 |  | 
CCCN1CCCN(c2ncc(-c3ccc4c(Nc5cnccn5)ccnc4c3C)cn2)CC1 [9d] | 1 | 1 | 4 | 4 | strongly bioactive by 24 h |  |  |  | 36 µL/min/1e6 cells | 3.3 |  |  | Unc, deg |  |  | Unc, deg |  | 0.06 |  | 
Cc1c(-c2cnc(N3CCCNCC3)nc2)ccc2c(Nc3cnccn3)ccnc12 [9e] | 0 | 2 | 4 | 4 | phenotypic response after 5 h |  |  |  | 5.3 µL/min/1e6 cells | 1.6 |  |  |  |  |  |  |  | 0.24 |  | 
COc1ccc(NC(=O)c2ccc(-c3cccc(N4CCOCC4)c3)cc2O)cc1Cl [7d] | 2 | 2 | 3 | 4 | phenotypic response after 1 h which increased in severity over time | 0.1 µM (≈ 0.0439 µg/mL) | < 0.01 | 12 µL/min/mg | 300 µL/min/1e6 cells | 4.7 | S, on sides | S, on sides | S, on sides, dark |  |  |  |  |  |  | 
CCCN1CCCN(c2ncc(-c3cc4nccc(Nc5cnccn5)c4cc3C)cn2)CC1 [8d] | 1 | 1 | 3 | 3 | bioactivity being detected after 1 h |  |  |  | 35 µL/min/1e6 cells | 3.2 |  |  |  |  |  |  |  | 0.12 |  | 
Cc1cc2c(Nc3cnccn3)ccnc2cc1-c1cnc(N2CCCNCC2)nc1 [8e] | 0 | 0 | 0 | 0 | inactive against schistosomes |  |  |  | < 1 µL/min/1e6 cells | 2.3 | none | none | none |  |  | none |  | 0.3 |  | 10 fold
